Results from PubChem BioAssay (NCI).
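Five concentrations, 48 hours, 96-well plates. The concentration for full growth arrest is given as TGI.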

Columns and labels:
Test in all cases: growth of human tumour cells (NCI), 48 h
OVCAR-8 ovarian = system: OVCAR-8 ovarian
NCI-H226 lung = system: NCI-H226 lung
K-562 leukemia = system: K-562 leukemia
HCT-116 colon = system: HCT-116 colon
NCI-H522 lung = system: NCI-H522 lung
A549 NSCLC = system: A549 NSCLC
OVCAR-5 ovarian = system: OVCAR-5 ovarian
SK-OV-3 ovarian = system: SK-OV-3 ovarian
LOX IMVI melanoma = system: LOX IMVI melanoma
SNB-19 CNS = system: SNB-19 CNS
SNB-75 CNS = system: SNB-75 CNS
NCI-H460 lung = system: NCI-H460 lung
UACC-62 melanoma = system: UACC-62 melanoma
KM12 colon = system: KM12 colon
ACHN renal = system: ACHN renal
RPMI-8226 leukemia = system: RPMI-8226 leukemia
XF 498 CNS = system: XF 498 CNS
SK-MEL-28 melanoma = system: SK-MEL-28 melanoma
SK-MEL-5 melanoma = system: SK-MEL-5 melanoma
RXF 393 renal = system: RXF 393 renal
NCI-H23 lung = system: NCI-H23 lung
SR leukemia = system: SR leukemia
SNB-78 CNS = system: SNB-78 CNS
HOP-92 NSCLC = system: HOP-92 NSCLC
SF-295 CNS = system: SF-295 CNS
HOP-62 NSCLC = system: HOP-62 NSCLC
DMS 273 small cell lung = system: DMS 273 small cell lung
U251 CNS = system: U251 CNS
CAKI-1 renal = system: CAKI-1 renal
CCRF-CEM leukemia = system: CCRF-CEM leukemia
KM20L2 colon = system: KM20L2 colon
LXFL 529 NSCLC = system: LXFL 529 NSCLC
SN12C renal = system: SN12C renal
IGROV1 ovarian = system: IGROV1 ovarian
MALME-3M melanoma = system: MALME-3M melanoma
DMS 114 small cell lung = system: DMS 114 small cell lung
COLO 205 colon = system: COLO 205 colon
786-0 renal = system: 786-0 renal
UO-31 renal = system: UO-31 renal
M19-MEL melanoma = system: M19-MEL melanoma
M14 melanoma = system: M14 melanoma
HCC-2998 colon = system: HCC-2998 colon
DLD-1 colon = system: DLD-1 colon
SF-539 CNS = system: SF-539 CNS
MOLT-4 leukemia = system: MOLT-4 leukemia
HCT-15 colon = system: HCT-15 colon
SF-268 CNS = system: SF-268 CNS
SW-620 colon = system: SW-620 colon
OVCAR-4 ovarian = system: OVCAR-4 ovarian
HT29 colon = system: HT29 colon
HL-60(TB) leukemia = system: HL-60(TB) leukemia
UACC-257 melanoma = system: UACC-257 melanoma
OVCAR-3 ovarian = system: OVCAR-3 ovarian
TK-10 renal = system: TK-10 renal
MDA-MB-231 breast = system: MDA-MB-231 breast
EKVX NSCLC = system: EKVX NSCLC
BT-549 breast = system: BT-549 breast
HS 578T breast = system: HS 578T breast
MDA-N = system: MDA-N
PC-3 prostate = system: PC-3 prostate
MCF7 breast = system: MCF7 breast
SK-MEL-2 melanoma = system: SK-MEL-2 melanoma
A498 renal = system: A498 renal
NCI/ADR-RES ovarian = system: NCI/ADR-RES ovarian
T-47D breast = system: T-47D breast
DU-145 prostate = system: DU-145 prostate
MDA-MB-435 = system: MDA-MB-435

CN(C)/N=C(/c1nc2ccc([N+](=O)[O-])cc2[nH]c1=O)C(O)c1ccco1 (configuration not stated)
TGI (OVCAR-8 ovarian): > 100 µM
TGI (NCI-H226 lung): > 100 µM
TGI (K-562 leukemia): > 100 µM
TGI (HCT-116 colon): > 100 µM
TGI (NCI-H522 lung): 92.2 µM
TGI (A549 NSCLC): > 100 µM
TGI (OVCAR-5 ovarian): > 100 µM
TGI (SK-OV-3 ovarian): > 100 µM
TGI (LOX IMVI melanoma): > 100 µM
TGI (SNB-19 CNS): > 100 µM
TGI (SNB-75 CNS): > 100 µM
TGI (NCI-H460 lung): > 100 µM
TGI (UACC-62 melanoma): > 100 µM
TGI (KM12 colon): > 100 µM
TGI (ACHN renal): > 100 µM
TGI (RPMI-8226 leukemia): > 100 µM
TGI (XF 498 CNS): > 100 µM
TGI (SK-MEL-28 melanoma): > 100 µM
TGI (SK-MEL-5 melanoma): > 100 µM
TGI (RXF 393 renal): > 100 µM
TGI (NCI-H23 lung): > 100 µM
TGI (SR leukemia): > 100 µM
TGI (SNB-78 CNS): > 100 µM
TGI (HOP-92 NSCLC): > 100 µM
TGI (SF-295 CNS): > 100 µM
TGI (HOP-62 NSCLC): > 100 µM
TGI (DMS 273 small cell lung): > 100 µM
TGI (U251 CNS): > 100 µM
TGI (CAKI-1 renal): > 100 µM
TGI (CCRF-CEM leukemia): > 100 µM
TGI (KM20L2 colon): > 100 µM
TGI (LXFL 529 NSCLC): > 100 µM
TGI (SN12C renal): > 100 µM
TGI (IGROV1 ovarian): > 100 µM
TGI (MALME-3M melanoma): > 100 µM
TGI (DMS 114 small cell lung): > 100 µM
TGI (COLO 205 colon): > 100 µM
TGI (786-0 renal): > 100 µM
TGI (UO-31 renal): 90.5 µM
TGI (M19-MEL melanoma): > 100 µM
TGI (M14 melanoma): > 100 µM
TGI (HCC-2998 colon): > 100 µM
TGI (DLD-1 colon): > 100 µM
TGI (SF-539 CNS): > 100 µM
TGI (MOLT-4 leukemia): > 100 µM
TGI (HCT-15 colon): > 100 µM
TGI (SF-268 CNS): > 100 µM
TGI (SW-620 colon): > 100 µM
TGI (OVCAR-4 ovarian): > 100 µM
TGI (HT29 colon): > 100 µM
TGI (HL-60(TB) leukemia): > 100 µM
TGI (UACC-257 melanoma): > 100 µM
TGI (OVCAR-3 ovarian): > 100 µM

CC(C)OP(=O)(OC(C)C)/C(C#N)=C/c1ccco1
TGI (OVCAR-8 ovarian): > 100 µM
TGI (NCI-H226 lung): > 100 µM
TGI (K-562 leukemia): > 100 µM
TGI (TK-10 renal): > 100 µM
TGI (MDA-MB-231 breast): > 100 µM
TGI (HCT-116 colon): > 100 µM
TGI (NCI-H522 lung): > 100 µM
TGI (A549 NSCLC): > 100 µM
TGI (OVCAR-5 ovarian): > 100 µM
TGI (EKVX NSCLC): > 100 µM
TGI (BT-549 breast): > 100 µM
TGI (SK-OV-3 ovarian): > 100 µM
TGI (LOX IMVI melanoma): > 100 µM
TGI (SNB-19 CNS): > 100 µM
TGI (HS 578T breast): > 100 µM
TGI (SNB-75 CNS): > 100 µM
TGI (MDA-N): > 100 µM
TGI (NCI-H460 lung): > 100 µM
TGI (PC-3 prostate): > 100 µM
TGI (UACC-62 melanoma): > 100 µM
TGI (KM12 colon): > 100 µM
TGI (ACHN renal): > 100 µM
TGI (RPMI-8226 leukemia): > 100 µM
TGI (SK-MEL-28 melanoma): > 100 µM
TGI (MCF7 breast): > 100 µM
TGI (SK-MEL-5 melanoma): > 100 µM
TGI (RXF 393 renal): > 100 µM
TGI (SK-MEL-2 melanoma): > 100 µM
TGI (NCI-H23 lung): > 100 µM
TGI (SR leukemia): > 100 µM
TGI (HOP-92 NSCLC): > 100 µM
TGI (SF-295 CNS): > 100 µM
TGI (HOP-62 NSCLC): > 100 µM
TGI (A498 renal): > 100 µM
TGI (U251 CNS): > 100 µM
TGI (NCI/ADR-RES ovarian): > 100 µM
TGI (CAKI-1 renal): > 100 µM
TGI (CCRF-CEM leukemia): > 100 µM
TGI (T-47D breast): > 100 µM
TGI (SN12C renal): > 100 µM
TGI (IGROV1 ovarian): > 100 µM
TGI (MALME-3M melanoma): > 100 µM
TGI (COLO 205 colon): > 100 µM
TGI (786-0 renal): > 100 µM
TGI (UO-31 renal): 9.38 µM
TGI (M14 melanoma): > 100 µM
TGI (HCC-2998 colon): > 100 µM
TGI (SF-539 CNS): > 100 µM
TGI (MOLT-4 leukemia): > 100 µM
TGI (HCT-15 colon): > 100 µM
TGI (SF-268 CNS): > 100 µM
TGI (DU-145 prostate): > 100 µM
TGI (SW-620 colon): > 100 µM
TGI (OVCAR-4 ovarian): > 100 µM
TGI (HT29 colon): > 100 µM
TGI (HL-60(TB) leukemia): > 100 µM
TGI (UACC-257 melanoma): > 100 µM
TGI (MDA-MB-435): > 100 µM
TGI (OVCAR-3 ovarian): > 100 µM
